Measured values reported in US6770635B1, “Method for medicating the inflammatory controlling system and adverse inflammatory reactions and for making compounds for treating the pathology of adverse inflammatory reactions” (Pharos Pharmaceuticals, priority 1995, dated 2004).

Assays:
[1] = stability of BD2K1 in water (deuterium oxide), 500 MHz NMR; type: physicochemical; settings: for After One Week (share of ingredient in the solution by NMR) / Initially % (share of ingredient in the solution by NMR): BD2K1 in deuterium oxide, room temperature about 27° C.
Experimental: A sample of BD2K1 made according to Example 1. Five mcg of the sample was dissolved in one ml of deuterium oxide and the solution was stored in a tightly capped screw capped tube maintained at room temperature which is about 27° C. Deuterium was used as the water source because it facilitates the NMR determinations of chemical configuration. The solution sample was scanned by 500 MHz NMR initially and after one week.

[2] = stabilizing effect of glucose added to BD2K1-deuterium oxide mixtures, NMR; type: physicochemical; settings: for level at which di-β-glucosamine equilibrates: 20% or more glucose in the mixture, in water, first week; for percent of total composition in the stationary equilibrium: 95% BD2K1 sample in water without glucose, one week
Experimental: This experiment measures the stabilizing effect of glucose when added to the BD2K1 -deuterium oxide mixtures at room temperature. Various amounts of α-D-glucose were added to the similar starting mixtures in Example 3 and the NMRs were recorded to determine the percent changes of the total composition as a function of time.

[3] = tested on: mice immunologically sensitive to a specific water soluble chemical; experiment: Inflammatory Controlling System (ICS) assay; type: in vivo
Experimental: An example of BD2K1 being synthesized in another area than in the intestine is seen in a mouse study which was conducted involving the Inflammatory Controlling System (ICS). ICS assay is done in mice immunologically sensitive to a specific water soluble chemical. When these mice are challenged intravenously with a sublethal dose of the chemical, below the toxicity level for non-sensitive mice, they immediately respond with an adverse immune reaction. Result is an acute pancreatitis, shock and death. […] The assay involves glucose controls which are administrated intraperitoneally at three times. The first is early (i.e., 3 hours) before the antigen challenge. The second is one hour before the challenge and the third is at zero hour (i.e., when the challenge is done). […] However, for the case where glucose was injected at the zero hour and one hour before the challenge there was no effect.
A further study in mice was conducted to test the effect of glucose in mice by various routes of administration in the ICS assay test. The glucose was administrated by four different routes: intraperitoneal, intravenous, subcutaneous and oral.

[4] = storage of BD2K1 in a desiccated container; type: physicochemical; settings: room temperature
[5] = general statements on stability at alkaline pH and in body fluids; type: physicochemical
[6] = tolerability statements for BD2K (topical, parenteral use); type: in vivo

SMILES | After One Week (share of ingredient in the solution by NMR) [1] [%] | Initially % (share of ingredient in the solution by NMR) [1] [%] | level at which di-β-glucosamine equilibrates [2] [%] | level at which di-β-glucosamine equilibrates ([2]; listed as di-β-glucosamine) | time the equilibrium level is kept ([2]; 20% or more glucose, sealed container) | percent of total composition in the stationary equilibrium [2] | protection against the acute pancreatitis ([3]; BD2K1 controls of the route study) | protection from death on challenge ([3]; sensitive mice, intravenous sublethal antigen challenge) | decomposition on storage [4] | stability in body fluids ([5]; body fluids) | stability at high alkaline pH ([5]; high alkaline pH) | irritation ([6]; applied topically) | IgE levels in patient sera ([6]; patient sera) | toxicity ([6]; used parentally) | reduction of BD2K1 to the starting material glucose ([1]; by adding water) [%]
OC[C@H]1O[C@H](O)[C@H](O)[C@@H](O)[C@@H]1O [α-glucose] | 10 | 0 | – | – | – | – | – | – | – | – | – | – | – | – | –
OC[C@H]1O[C@@H](N[C@@H]2O[C@H](CO)[C@@H](O)[C@H](O)[C@H]2O)[C@H](O)[C@@H](O)[C@@H]1O [BD2K1, di-Beta-D-glucopyranosylamine] | 62 | 92 | 80 | about 80% | at least five years | 62% | good protection | protects these sensitive mice from death | does not decompose | not very stable | extremely stable | without any irritation | without elevating IgE levels | no indication of toxicity | 33
OC[C@H]1O[C@@H](O)[C@H](O)[C@@H](O)[C@@H]1O [β-glucose] | 18 | 0 | – | – | – | – | – | – | – | – | – | – | – | – | –
c1cnccn1 [pyrazine] | 1 | 1 | – | – | – | less than 1% | – | – | – | – | – | – | – | – | –
